In general, IC50 refers to the concentration needed to halve the response being measured. A low value points to greater potency.

The target in experiment [1] is T1, Prostaglandin G/H synthase 1 (Ovis aries, UniProt P05979).
T1 sequence (P05979 whole entry): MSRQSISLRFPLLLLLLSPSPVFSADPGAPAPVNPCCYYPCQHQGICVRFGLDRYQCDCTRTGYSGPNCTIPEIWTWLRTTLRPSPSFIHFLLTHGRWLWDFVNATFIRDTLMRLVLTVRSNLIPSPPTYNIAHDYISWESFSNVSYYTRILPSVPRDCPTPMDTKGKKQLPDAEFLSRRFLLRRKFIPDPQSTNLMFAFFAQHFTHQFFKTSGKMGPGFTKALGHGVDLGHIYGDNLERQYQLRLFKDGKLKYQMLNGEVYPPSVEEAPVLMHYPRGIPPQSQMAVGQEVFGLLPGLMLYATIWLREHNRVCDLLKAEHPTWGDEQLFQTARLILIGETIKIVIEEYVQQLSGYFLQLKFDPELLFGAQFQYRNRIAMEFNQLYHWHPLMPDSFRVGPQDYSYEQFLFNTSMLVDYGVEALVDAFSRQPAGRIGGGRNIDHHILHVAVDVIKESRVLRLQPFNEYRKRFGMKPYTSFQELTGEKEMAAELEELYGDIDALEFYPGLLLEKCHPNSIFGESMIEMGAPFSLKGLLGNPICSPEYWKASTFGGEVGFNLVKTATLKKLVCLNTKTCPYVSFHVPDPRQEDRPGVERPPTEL
Kind of experiment: In vitro inhibitory activity against prostaglandin G/H synthase 1 from ovine.

Experiment [2] has as its target T2, Prostaglandin G/H synthase 2 (Ovis aries, UniProt P79208).
T2 sequence (P79208 whole entry): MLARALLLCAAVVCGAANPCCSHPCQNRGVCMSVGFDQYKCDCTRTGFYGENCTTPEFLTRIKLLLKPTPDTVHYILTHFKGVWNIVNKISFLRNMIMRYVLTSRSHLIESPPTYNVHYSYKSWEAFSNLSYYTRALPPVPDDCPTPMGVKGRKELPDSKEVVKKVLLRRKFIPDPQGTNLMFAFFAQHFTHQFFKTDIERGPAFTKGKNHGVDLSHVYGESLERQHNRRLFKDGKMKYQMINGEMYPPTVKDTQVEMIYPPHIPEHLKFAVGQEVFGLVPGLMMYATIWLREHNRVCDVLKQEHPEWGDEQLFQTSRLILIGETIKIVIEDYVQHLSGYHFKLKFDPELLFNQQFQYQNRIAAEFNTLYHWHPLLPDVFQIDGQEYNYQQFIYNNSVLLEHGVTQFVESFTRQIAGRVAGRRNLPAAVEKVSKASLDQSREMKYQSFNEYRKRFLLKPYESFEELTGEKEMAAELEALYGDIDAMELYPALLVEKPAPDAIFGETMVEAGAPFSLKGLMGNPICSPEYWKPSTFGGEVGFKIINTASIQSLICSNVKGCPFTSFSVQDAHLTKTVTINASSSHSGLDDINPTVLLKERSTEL
Kind of experiment: In vitro inhibitory activity against prostaglandin G/H synthase 2 from ovine.

For the compound `CC(=O)NS(=O)(=O)c1ccc(C2=C(c3ccc(S(C)(=O)=O)cc3)C(=O)OC2)cc1`, the IC50 is above 100 µM in experiment [1] and 0.05 µM in experiment [2].
Regarding `CS(=O)(=O)c1ccc(C2=C(c3ccc(S(=O)(=O)N=[N+]=[N-])cc3)COC2=O)cc1`, the figures for the IC50 in experiment [1] and in experiment [2] were above 100 µM and 3.1 µM, respectively.
As to `CS(=O)(=O)c1ccc(C2=C(c3ccc(S(N)(=O)=O)cc3)COC2=O)cc1`, the IC50 in experiment [1] and in experiment [2] was above 100 µM each time.
Turning to `CS(=O)(=O)c1ccc(C2=C(c3ccc(S(=O)(=O)N=[N+]=[N-])cc3)C(=O)OC2)cc1`, the IC50 in experiment [1] worked out at 31.5 µM; in experiment [2], 11 µM.
`CS(=O)(=O)c1ccc(C2=C(c3ccccc3)C(=O)OC2)cc1` [ROFECOXIB] showed a half-inhibitory concentration (IC50) in experiment [2] above 0.43 µM.
`CS(=O)(=O)c1ccc(C2=C(c3ccc(S(N)(=O)=O)cc3)C(=O)OC2)cc1`: the 50% inhibitory concentration (IC50) in experiment [1] and in experiment [2] was above 100 µM each time.
Turning to `CC(=O)NS(=O)(=O)c1ccc(C2=C(c3ccc(S(C)(=O)=O)cc3)COC2=O)cc1`, the results for the half-inhibitory concentration (IC50) in experiment [1] and in experiment [2] were 3.2 µM and 4.6 µM, respectively.

The values above are taken from ChEMBL document CHEMBL1147521 (Bioorg Med Chem Lett, 2004).
